Test results: ChEMBL document CHEMBL3045334, “Microwave-assisted synthesis and evaluation of naphthalimides derivatives as free radical scavengers” (Med Chem Res, 2011); call rule not given here

System: Radical scavenging activity
Assay: Antioxidant activity assessed as DPPH radical scavenging activity
Format: functional

Row | IC50 (read-out: IC50) [µM] | IC50 | SMILES
1 | 149 |  | O=C1NC(=O)c2cccc3cccc1c23
2 | 42.2 |  | Cc1ccc(Nc2c([N+](=O)[O-])cc3c4c(cccc24)C(=O)N(c2ccc(C)cc2)C3=O)cc1
3 | 84.6 |  | O=C1c2cccc3c(NCc4ccccc4)ccc(c23)C(=O)N1Cc1ccccc1
4 |  | Not Active | O=C1OC(=O)c2ccc(Br)c3cccc1c23
5 | 231 |  | CCCNc1c([N+](=O)[O-])cc2c3c(cccc13)C(=O)N(CCC)C2=O
6 | 143 |  | O=C1c2cccc3cccc(c23)C(=O)N1Cc1ccccc1
7 | 208 |  | CC(C)c1ccc2c(c1)CCC1[C@@](C)(CN3C(=O)c4cccc5c(Br)ccc(c45)C3=O)CCC[C@]21C (some centres not stated)
8 | 238 |  | O=C1c2cccc3c(Br)ccc(c23)C(=O)N1Cc1ccccc1
9 | 155 |  | O=C1c2cccc3cccc(c23)C(=O)N1CCO
10 | 130 |  | O=C1c2cccc3cccc(c23)C(=O)N1c1ccccc1
11 | 320 |  | CCCCNc1ccc2c3c(cccc13)C(=O)N(CCCC)C2=O
12 | 183 |  | CCCCN1C(=O)c2cccc3cccc(c23)C1=O
13 | 1770 |  | O=C1OC(=O)c2cccc3cccc1c23 [1,8-NAPHTHALIC ANHYDRIDE]
14 | 221 |  | CC(C)c1ccc2c(c1)CCC1[C@@](C)(CN3C(=O)c4cccc5c(NCCO)ccc(c45)C3=O)CCC[C@]21C (some centres not stated)
15 | 147 |  | O=C1c2cccc3cccc(c23)C(=O)N1Nc1ccccc1
16 | 231 |  | O=C1c2cccc3c(NCCO)c([N+](=O)[O-])cc(c23)C(=O)N1CCO
17 | 351 |  | CCCNc1ccc2c3c(cccc13)C(=O)N(CCC)C2=O
18 | 65.8 |  | Cc1cc(C(C)(C)C)c(O)c(C(C)(C)C)c1 [BUTYLATED HYDROXYTOLUENE]
19 | 210 |  | CCCNc1ccc2c3c(cccc13)C(=O)N(C[C@@]1(C)CCC[C@]3(C)c4ccc(C(C)C)cc4CCC13)C2=O (some centres not stated)
20 | 61.9 |  | CC(C)c1ccc2c(c1)CCC1[C@@](C)(CN3C(=O)c4cccc5c(NCc6ccccc6)ccc(c45)C3=O)CCC[C@]21C (some centres not stated)
21 | 179 |  | CCCN1C(=O)c2cccc3cccc(c23)C1=O
22 | 215 |  | CCCCNc1c([N+](=O)[O-])cc2c3c(cccc13)C(=O)N(CCCC)C2=O
23 | 187 |  | NN1C(=O)c2cccc3cccc(c23)C1=O
24 | 166 |  | CC(C)c1ccc2c(c1)CCC1[C@@](C)(CN3C(=O)c4cccc5cccc(c45)C3=O)CCC[C@]21C (some centres not stated)
25 | 54 |  | O=C1OC(=O)c2cc([N+](=O)[O-])c(Br)c3cccc1c23
26 | 206 |  | CCCCNc1ccc2c3c(cccc13)C(=O)N(C[C@@]1(C)CCC[C@]3(C)c4ccc(C(C)C)cc4CCC13)C2=O (some centres not stated)
27 | 43.1 |  | O=C1c2cccc3c(NCc4ccccc4)c([N+](=O)[O-])cc(c23)C(=O)N1Cc1ccccc1
